Experimental data: publication PMC6331819, “Identification of N-Acetyldopamine Dimers from the Dung Beetle Catharsius molossus and Their COX-1 and COX-2 Inhibitory Activities” (Molecules, 2015)

Assays:
COX-2 = target: T1, COX-2 (Homo sapiens, UniProt P35354); assay: Cayman COX Fluorescent Inhibitor Screening Assay Kit; type: biochemical
T1 construct: gene PTGS2
T1 sequence (P35354 18-604): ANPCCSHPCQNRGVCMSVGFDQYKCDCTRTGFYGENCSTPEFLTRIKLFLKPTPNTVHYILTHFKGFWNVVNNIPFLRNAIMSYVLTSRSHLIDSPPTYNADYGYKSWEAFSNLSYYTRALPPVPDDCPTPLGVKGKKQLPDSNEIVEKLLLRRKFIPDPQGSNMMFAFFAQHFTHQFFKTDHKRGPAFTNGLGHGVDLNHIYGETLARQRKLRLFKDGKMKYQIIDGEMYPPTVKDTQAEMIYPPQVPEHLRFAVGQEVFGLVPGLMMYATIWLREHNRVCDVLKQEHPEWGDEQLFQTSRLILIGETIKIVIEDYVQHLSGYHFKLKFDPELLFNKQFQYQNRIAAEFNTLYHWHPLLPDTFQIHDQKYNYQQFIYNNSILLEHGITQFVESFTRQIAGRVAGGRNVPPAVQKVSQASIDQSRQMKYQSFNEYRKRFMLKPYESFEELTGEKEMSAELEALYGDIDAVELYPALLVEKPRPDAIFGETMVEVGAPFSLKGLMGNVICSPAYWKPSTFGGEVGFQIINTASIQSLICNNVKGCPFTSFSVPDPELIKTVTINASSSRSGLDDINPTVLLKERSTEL

COX-1 = target: T2, COX-1 (Ovis aries, UniProt P05979); assay: as above; type: biochemical
T2 construct: gene PTGS1
T2 sequence (P05979 25-600): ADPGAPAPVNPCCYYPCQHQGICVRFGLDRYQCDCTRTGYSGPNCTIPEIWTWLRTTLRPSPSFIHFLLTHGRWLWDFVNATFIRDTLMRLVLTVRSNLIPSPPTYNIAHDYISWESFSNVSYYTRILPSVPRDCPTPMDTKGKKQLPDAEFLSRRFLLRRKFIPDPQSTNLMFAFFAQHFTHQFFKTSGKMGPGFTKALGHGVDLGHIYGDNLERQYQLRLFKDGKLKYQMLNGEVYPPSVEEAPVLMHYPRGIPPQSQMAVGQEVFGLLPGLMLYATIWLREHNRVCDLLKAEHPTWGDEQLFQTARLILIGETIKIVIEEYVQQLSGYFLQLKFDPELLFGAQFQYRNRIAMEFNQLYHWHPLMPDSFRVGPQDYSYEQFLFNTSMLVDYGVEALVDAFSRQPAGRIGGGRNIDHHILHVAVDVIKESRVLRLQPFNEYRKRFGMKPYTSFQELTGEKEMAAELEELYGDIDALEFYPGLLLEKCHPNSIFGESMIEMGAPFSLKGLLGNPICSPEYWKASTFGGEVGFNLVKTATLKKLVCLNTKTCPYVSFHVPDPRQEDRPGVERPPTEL

IC50 (COX-2): 6.43 µM
IC50 (COX-1): 78.8 µM
SMILES: CC(=O)N/C=C/c1ccc2c(c1)O[C@H](c1ccc(O)c(O)c1)[C@H](NC(C)=O)O2 (racemic) [compound 4, cis-2-(3′,4′-dihydroxyphenyl)-3-acetylamino-7-(N-acetyl-2″-amino-ethylene)-1,4-benzodioxane]
